Data from patent US20250195613A1, “COMPOSITIONS AND METHODS FOR REDUCING BIOFILM FORMATION” (Trustees of Tufts College, priority 2022, published 2025).
“Also recorded” adds a separate entry of the source.

Assays:
Format in all cases: cell-based, Streptococcus mutans
S. mutans biofilms [1] = assay: Total biofilm biomass by crystal violet staining; conditions: for total bacterial biomass incl. exopolysaccharides (crystal violet), in words: OD 580 nm
Description: (§1) Overnight cultures of S. mutans UA159 were inoculated from glycerol stocks and grown for 12-18 h in 50% TH at 37° C. with 5% CO2. Biofilms were prepared by diluting overnight cultures 1:20 into 50-100 μl of media (TH25% with 1% sucrose) and any polymer solution in a 96-well polystyrene plate for a starting inoculum of 10^7-10^8 CFU per ml. The cultures were then incubated statically for 5 hours at 37° C. with 5% CO2.
Total biofilm biomass was measured using crystal violet staining. The supernatant was aspirated, and the biofilm was washed twice with 100 μl of PBS. Then 100 μl of 0.1% crystal violet was added to each well and incubated for 15 minutes at room temperature. The crystal violet solution was removed, and the stained biofilms were washed five times with 200 μl of distilled water. Finally, 100 μl of 30% acetic acid was added to each well to extract the absorbed crystal violet, and the OD was measured at 580 nm on a microtiter plate reader.

S. mutans UA159 = assay: Biofilm growth CFU assay (fraction biofilm and total growth); conditions: for fractional biofilm formation (cells in biofilm relative to whole population), in words / overall (total) growth of the bacterial population / toxicity to S. mutans: 5 h, TH25% with 1% sucrose; for fractional biofilm formation (cells in biofilm relative to whole population), in words: 96-well polystyrene plate; for overall (total) growth of the bacterial population / toxicity to S. mutans: biofilm CFU per ml + supernatant CFU per ml
Description: The bacterial strain S. mutans UA159 (ATCC, 700610) was originally isolated from a child with active cavities. Bacteria were cultivated in Bacto Todd-Hewitt broth (TH; BD, 249240) or brain-heart infusion (BHI; BD, 237500) 1.5% agar plates at 37° C. with 5% CO2. To promote biofilm formation, S. mutans was grown in 25% TH supplemented with 1% sucrose.
as §1
To measure total growth and relative biofilm formation, the number of cells in the biofilm and in suspension were counted using a colony forming unit (CFU) assay as previously described. See Werlang, C. A. et al., “Mucin O-glycans suppress quorum-sensing pathways and genetic transformation in Streptococcus mutans,” Nat. Microbiol. 1-10 (2021) doi: 10.1038/s41564-021-00876-1, which is incorporated herein in its entirety by reference for all purposes. Briefly, the supernatant was removed and transferred to a new 96-well plate, the biofilm was washed twice with 100 μl of phosphate-buffered saline (PBS), and the washes were added to the supernatant. The biofilm was then detached and resuspended in 100 μl of PBS by vigorously scraping with a pipette tip for 30 s. Each culture fraction was then serially diluted and plated on BHI agar. Colonies were counted after 24 h growth at 37° C. with 5% CO2. The fraction biofilm was calculated as (biofilm CFU per ml)/(biofilm CFU per ml+supernatant CFU per ml). The total growth was calculated as biofilm CFU per ml+supernatant CFU per ml. All of the conditions had at least three biological replicates (individual data points shown on graphs).

S. mutans = assay: Polymer attachment assay (bacterial attachment to polymer coating); conditions: coatings from 2 mg per ml polymer on polystyrene, 1 hour at 37° C.
Description: Bacterial attachment to polymer coating was assayed as previously described. See Co, J. Y., Crouzier, T. & Ribbeck, K., “Probing the Role of Mucin-Bound Glycans in Bacterial Repulsion by Mucin Coatings,” Adv. Mater. Interfaces 2, 1500179 (2015), which is incorporated herein in its entirety by reference for all purposes. Briefly, coatings were prepared by incubating 100 μl of polymer solutions (2 mg per ml in Milli-Q purified water) on 96-well polystyrene plates for 2 h at 37° C., followed by three washes with 200 μl of sterile-filtered distilled water. Overnight cultures of S. mutans were centrifuged and resuspended in sterile PBS at an OD600 of 0.4, and 50 μl of the washed culture were added to each well. The bacteria were incubated on the coating for 1 hour at 37° C. To measure cell attachment, unattached bacteria were aspirated, wells were washed three times with 200 μl of PBS, and the remaining bacteria were detached with a pipette and resuspended in PBS before being quantified by a CFU assay.

S. mutans biofilms [2] = assay: Confocal microscopy of SYTO9-stained biofilms; conditions: SYTO9 stain
Description: For confocal microscopy, S. mutans biofilms were prepared as described above on 96-well glass-bottom plates with 5 nM of SYTO9 green fluorescent nucleic acid stain (ThermoFisher, S34854) added to the cultures. Cultures were imaged on a confocal laser-scanning microscope (LSM 800; Zeiss) with a 63×/1.4 NA oil immersion objective with a step size of 0.5 μm. The excitation wavelength for SYTO9 was 488 nm. At least three stacks were recorded for each well, and at least three independent wells were analyzed for each condition. Images were analyzed with Zeiss ZEN 2.1 imaging software (Thornwood, NY, USA).

**Q.** Which “total bacterial biomass incl. exopolysaccharides (crystal violet), in words” value (S. mutans biofilms [1]) does the source give for CC(=O)N[C@H]1[C@H]([C@H](O)[C@H](O)CO)OC(O)(C(=O)O)C[C@@H]1O (stereo partly drawn) [soluble NeuNAc, N-Acetylneuraminic acid] here?
**A.** Its value is “reduction in total bacterial biomass”.

**Q.** What about the “fractional biofilm formation (cells in biofilm relative to whole population), in words” value (S. mutans UA159) of the same molecule?
**A.** The value was “small proportional reduction in the fraction of biofilm”.

**Q.** And the “overall (total) growth of the bacterial population / toxicity to S. mutans” value (S. mutans UA159)?
**A.** Its value is “toxic to S. mutans; also recorded: strong killing effect”.

**Q.** Which “fractional biofilm formation (cells in biofilm relative to whole population), in words” value (S. mutans UA159) does the source give for CC(=O)N[C@H]1C(O)O[C@H](CO)[C@H](O)[C@@H]1O (stereo partly drawn) [Soluble GalNAc, N-acetyl galactosamine] here?
**A.** Its value is “do not have a statistically significant impact”.

**Q.** Which results are given for “MUC5B: mucin purified by liquid chromatography from pooled human submandibular saliva”?
**A.** total bacterial biomass incl. exopolysaccharides (crystal violet), in words (S. mutans biofilms [1]): reduce the total bacterial biomass; reduction of biofilm biomass (S. mutans biofilms [1]; crystal violet staining): 77%; S. mutans binding to polymer coating (S. mutans): do not strongly bind; S. mutans binding to polymer coating (S. mutans; listed as MUC5B mucin): did not bind; biofilm fraction of culture (S. mutans UA159; 0.5% MUC5B mucin): 30%; overall (total) growth of the bacterial population / toxicity to S. mutans (S. mutans UA159): do not affect the overall growth; surface attachment / community structure by confocal microscopy (S. mutans biofilms [2]): no longer attached to the surface; surface attachment / community structure by confocal microscopy (S. mutans biofilms [2]; listed as mucin): no longer attach to the surface
